Results taken from ChEMBL document CHEMBL6127082, “Genome-Led Discovery of the Antibacterial Cyclic Lipopeptide Kutzneridine A and Its Silent Biosynthetic Gene Cluster from Kutzneria Species” (2024).
≈ marks a conversion by molar mass, not a printed value. Calls of active or inactive are those of the source. No cut-off for these calls is given here.

How the values were obtained:
Staphylococcus aureus [1] = assay: Antibacterial activity against methicillin-resistant Staphylococcus aureus assessed as inhibition of bacterial growth; assay type: functional
Staphylococcus aureus [2] = assay: Antibacterial activity against methicillin-resistant Staphylococcus aureus MB5395 assessed as inhibition of bacterial growth; assay type: functional
Enterococcus faecium [3] = assay: Antibacterial activity against vancomycin B-resistant Enterococcus faecium assessed as inhibition of bacterial growth; assay type: functional
Aspergillus fumigatus = assay: Antifungal activity against Aspergillus fumigatus ATCC46645 assessed as inhibition of […] growth; assay type: functional, organism-based
Enterococcus faecium [4] = assay: Antibacterial activity against vancomycin A-resistant Enterococcus faecium assessed as inhibition of bacterial growth; assay type: functional
Acinetobacter baumannii = assay: Antibacterial activity against Acinetobacter baumannii ATCC19606 assessed as inhibition of bacterial growth; assay type: functional, organism-based

| SMILES | MIC95 (Staphylococcus aureus [1]) | MIC95 (Staphylococcus aureus [2]) | MIC95 (Enterococcus faecium [3]) | Activity (Aspergillus fumigatus) | MIC95 (Enterococcus faecium [4]) | Activity (Acinetobacter baumannii) |
| --- | --- | --- | --- | --- | --- | --- |
| CCCCC/C=C/C=C/C(=O)NC[C@@H]1NC(=O)CNC(=O)[C@@H](N)CNC(=O)[C@@H](Cc2ccc(OC)cc2)NC1=O | 16 µg/mL (≈ 28.7 µM) | – | – | – | – | – |
| CCCCC/C=C/C=C/C(=O)NC[C@@H]1NC(=O)CN2C(=O)[C@H](CNC(=O)[C@@H](Cc3ccc(OC)cc3)NC1=O)NC2(C)C | 16 µg/mL (≈ 26.8 µM) | 4 µg/mL (≈ 6.7 µM) | 8 µg/mL (≈ 13.4 µM) | inactive | 16 µg/mL (≈ 26.8 µM) | inactive |
